The record followed here is US20250206761A1, “HALOINDOLE MACROCYCLIC COMPOUNDS FOR THE TREATMENT OF CANCER” (Hoffmann-La Roche Inc., priority 2022, published 2025).

The structures appear in SMILES notation. Where only a bound is given, the exact number is not on record here.

Experiment [1] relates to phosphorylation of ERK, KRAS G12V in SW620. Put plainly: pERK inhibition assay, KRAS G12V. Format: cell-based, human. The gist of the method:
(§1)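 Read-out is OD450 from a TMB colorimetric cell ELISA using a phospho-ERK-specific antibody and HRP-linked secondary. Compounds were incubated with the cells for 4 hours at 0.5% DMSO before fixation and permeabilization. IC50 values come from 4-parameter concentration-response fitting.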

The target in experiment [2] is KRAS G12V binding to BRAF (Homo sapiens (Human), UniProt P01116+P62937, G12V). In words: KRAS-BRAF with CYPA (500 nM) interaction assay (TR-FRET), G12V. In kind it is biochemical. The method in brief:
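A TR-FRET assay measured how compound, in the presence of CYPA, disrupts binding of GMPPNP-loaded 6His-KRAS G12V to BRAF. The buffer contained 25 mM HEPES PH=7.4, 0.002% Tween20, 0.1% BSA, 100 mM NaCl, 5 mM MgCl2 and 10 μM GMPPNP. Compounds ran as a 16-point 3-fold dilution series from 10 μM for 3 hours.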
A general note: Time-resolved FRET reads energy transfer from a long-lived donor to a nearby acceptor.

For experiment [3], the system named is NCI-H358 (ATCC-CRL5807) cells. Put plainly: Cell viability assay, G12C (NCI-H358). Format: cell-based, human. To be noted: KRAS cell viability, NCI-H358, 72 hrs, Cell Counting Kit-8. On the procedure:
The purpose of this cellular assay was to determine the effects of test compounds on the proliferation of human cancer cell lines NCI-H358 (ATCC-CRL5807) cells, AGS (ATCC-CRL-1739) cells, SW620 (ATCC-CCL-227) over a 3-day treatment period by quantifying the amount of NADPH present at endpoint using Cell Counting Kit-8.
Cells were seeded at 5,000 cells/well (NCI-H358), 2,000 cells/well (AGS) 2,000 cells/well (SW620) in 96-well assay plates (Corning-3699) and incubated overnight. On the day of the assay, diluted compounds were then added in a final concentration of 0.5% DMSO. After 72 hrs incubation, a tenth of the volume of cell counting kit 8 (Dnjindo-CK04) was added into each well. Read the signal (OD450 minus OD650) using EnVision after 2 hrs incubation. IC50 was determined by fitting a 4-parameter sigmoidal concentration response model.
Background: Tetrazolium assays rely on reduction of a dye to a coloured formazan, in cell work by metabolically active cells.

The test system of experiment [4] is SW620 (ATCC-CCL-227). In words: Cell viability assay, G12V (SW620). In kind it is cell-based, human. Particulars: KRAS cell viability, SW620, 72 hrs, Cell Counting Kit-8. The method in brief: (§2)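 72-hr compound treatment, 0.5% DMSO final; NCI-H358 seeded 5,000 cells/well, AGS and SW620 2,000 cells/well. Endpoint: CCK-8, 2-hr development, OD450 minus OD650.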
The target of experiment [5] is KRAS G12D binding to BRAF (Homo sapiens (Human), UniProt P01116+P62937, G12D). Put plainly: KRAS-BRAF with CYPA (500 nM) interaction assay (TR-FRET), G12D. In kind it is biochemical.
Chain of KRAS G12D binding to BRAF (P01116-2 other isoform, or with tags, fused parts or gaps G12D): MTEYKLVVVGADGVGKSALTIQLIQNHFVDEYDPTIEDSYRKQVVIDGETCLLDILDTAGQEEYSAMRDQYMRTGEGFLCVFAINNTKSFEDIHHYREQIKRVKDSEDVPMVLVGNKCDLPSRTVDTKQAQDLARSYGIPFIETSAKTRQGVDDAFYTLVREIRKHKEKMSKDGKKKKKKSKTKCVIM
Chain of KRAS G12D binding to BRAF (P62937 whole entry): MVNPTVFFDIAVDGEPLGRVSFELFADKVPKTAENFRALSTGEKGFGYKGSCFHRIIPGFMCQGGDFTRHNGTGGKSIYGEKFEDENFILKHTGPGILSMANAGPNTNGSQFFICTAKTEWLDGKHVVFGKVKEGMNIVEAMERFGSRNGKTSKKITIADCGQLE
Experiment [6] concerns AGS (ATCC-CRL-1739) cells. In words: Cell viability assay, G12D (AGS). In kind it is cell-based, human. Particulars: KRAS cell viability, 72 hrs, Cell Counting Kit-8. The gist of the method: as §2
In experiment [7] the test system is phosphorylation of ERK, KRAS G12C in NCJ-H358 cells. In words: pERK inhibition assay, KRAS G12C. In kind it is cell-based, human. To be noted: 4 hours. The method in brief: as §1
Experiment [8] addresses KRAS G12C-BRAF complex (Homo sapiens (Human), UniProt P01116+P62937, G12C). Put plainly: KRAS-BRAF with CYPA (500 nM) interaction assay (TR-FRET), G12C. In kind it is biochemical.
Setting [9] is: Homo sapiens, SW-620, SW620, 4 hours.

Chain of KRAS G12V binding to BRAF (P01116-2 other isoform, or with tags, fused parts or gaps G12V): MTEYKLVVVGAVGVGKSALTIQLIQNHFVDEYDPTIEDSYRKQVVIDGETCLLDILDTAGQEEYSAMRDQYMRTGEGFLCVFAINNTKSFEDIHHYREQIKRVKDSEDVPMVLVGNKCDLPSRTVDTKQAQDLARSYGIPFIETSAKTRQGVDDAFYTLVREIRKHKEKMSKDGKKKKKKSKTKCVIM
Chain of KRAS G12V binding to BRAF (P62937 whole entry): as the sequence (P62937 whole entry) above
Chain of KRAS G12C-BRAF complex (P01116-2 other isoform, or with tags, fused parts or gaps G12C): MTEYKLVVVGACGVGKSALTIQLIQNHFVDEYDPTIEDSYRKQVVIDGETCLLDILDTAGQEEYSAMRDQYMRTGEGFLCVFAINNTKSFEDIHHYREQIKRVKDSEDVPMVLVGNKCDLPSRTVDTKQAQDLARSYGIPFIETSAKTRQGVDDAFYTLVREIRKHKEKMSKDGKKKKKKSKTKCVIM
Chain of KRAS G12C-BRAF complex (P62937 whole entry): as the sequence (P62937 whole entry) above

Consider `CCn1c(-c2cc(N3CCN(C)CC3)cnc2[C@H](C)OC)c2c3cc(c(F)cc31)-c1csc(n1)C[C@H](NC(=O)[C@@H](COC1CN(C(=O)[C@H](F)Cl)C1)C(C)C)C(=O)N1CCC[C@H](N1)C(=O)OCC(C)(C)C2` (atropisomer, axis not shown; (M)) [Example 40, (2R)-2-[[1-[(2R)-2-chloro-2-fluoro-acetyl]azetidin-3-yl]oxymethyl]-N-[(7S,13S)-21-ethyl-24-fluoro-(20M)-20-[2-[(1S)-1-methoxyethyl]-5-(4-methylpiperazin-1-yl)-3-pyridyl]-17,17-dimethyl-8,14-dioxo-15-oxa-4-thia-9,21,27,28-tetrazapentacyclo[17.5.2.1^2,5.1^9,13.0^22,26]octacosa-1(25),2,5(28),19,22(26),23-hexaen-7-yl]-3-methyl-butanamide], for which the 50% inhibitory concentration (IC50) (usually the point on the concentration scale where inhibition reaches its midpoint) in experiment [1] (setting [9]) was 23 nM; in experiment [2] it was above 10000 nM; in experiment [3] (Homo sapiens) it was below 1 nM; in experiment [4] (Homo sapiens, SW-620), 63 nM; in experiment [5] it was above 10000 nM; in experiment [6] (Homo sapiens), 1110 nM. Besides, the results for the IC50 in experiment [7] (Homo sapiens) and in experiment [8] were 10 nM and 108 nM, respectively.
Regarding `CCn1c(-c2cc(N3CCN(C)CC3)cnc2[C@H](C)OC)c2c3cc(c(F)cc31)-c1csc(n1)C[C@H](NC(=O)[C@H](C(C)C)N1CCCC3(CCN(C(=O)[C@H](F)Cl)CC3)C1=O)C(=O)N1CCC[C@H](N1)C(=O)OCC(C)(C)C2` (atropisomer, axis not shown; (M)) [Example 36, (2S)-2-[9-[(2R)-2-chloro-2-fluoro-acetyl]-1-oxo-2,9-diazaspiro[5.5]undecan-2-yl]-N-[(7S,13S)-21-ethyl-24-fluoro-(20M)-20-[2-[(1S)-1-methoxyethyl]-5-(4-methylpiperazin-1-yl)-3-pyridyl]-17,17-dimethyl-8,14-dioxo-15-oxa-4-thia-9,21,27,28-tetrazapentacyclo[17.5.2.1^2,5.1^9,13.0^22,26]octacosa-1(25),2,5(28),19,22(26),23-hexaen-7-yl]-3-methyl-butanamide], the IC50 is 13 nM in experiment [1] (setting [9]); above 10000 nM in experiment [2]; below 1 nM in experiment [3] (Homo sapiens); 132 nM in experiment [4] (Homo sapiens, SW-620); 3940 nM in experiment [5]; 30 nM in experiment [6] (Homo sapiens). The figures for the IC50 in experiment [7] (Homo sapiens) and in experiment [8] were 3 nM and 38 nM, respectively.
Take `CCn1c(-c2cc(N3CCN(CC(F)(F)F)CC3)cnc2[C@H](C)OC)c2c3cc(c(F)cc31)-c1csc(n1)C[C@H](NC(=O)[C@H](C(C)C)N1CC[C@]3(CCN(C(=O)[C@H](F)Cl)C3)C1=O)C(=O)N1CCC[C@H](N1)C(=O)OCC(C)(C)C2` [Example 38, (2S)-2-[(5S)-7-[(2R)-2-chloro-2-fluoro-acetyl]-1-oxo-2,7-diazaspiro[4.4]nonan-2-yl]-N-[(7S,13S)-21-ethyl-24-fluoro-(20M)-20-[2-[(1S)-1-methoxyethyl]-5-[4-(2,2,2-trifluoroethyl)piperazin-1-yl]-3-pyridyl]-17,17-dimethyl-8,14-dioxo-15-oxa-4-thia-9,21,27,28-tetrazapentacyclo[17.5.2.1^2,5.1^9,13.0^22,26]octacosa-1(25),2,5(28),19,22(26),23-hexaen-7-yl]-3-methyl-butanamide]: the half-inhibitory concentration (IC50) was 45 nM in experiment [1] (SW620, 4 hours); 910 nM in experiment [2]; below 1 nM in experiment [3]; 103 nM in experiment [4]; 3300 nM in experiment [5]; 223 nM in experiment [6]. Moreover, the 50% inhibitory concentration (IC50) in experiment [7] stood at 1 nM; in experiment [8], 32 nM.
